# Paper PMC11156954, “Inhibition and transport mechanisms of the ABC transporter hMRP5” (Nature Communications, 2024)
# Where two headings read alike, the source gives them in different places.
# Columns and labels:
# MRP5 [1] = conditions: reducing expression of endogenous MRP5; drug and, for 5-fluorouracil, its metabolites; ref [24],[25]; cited from earlier work
# Source text: Patients with high hMRP5 levels tend to have a worse survival rate than those with low expression[20]–[22]. Further, overexpression of hMRP5 is a strong predictor of poor outcomes in cancer patient cohorts[19],[22],[23].
# hMRP5 = tested on: hMRP5; design: method as in 2 sources, ref [15]–[18] = [15]; PMID 28277541; doi:10.1038/cddis.2017.53; 15. Hou Y The FOXM1-ABCC5 axis contributes to paclitaxel resistance in nasopharyngeal carcinoma cells Cell Death Dis. 2017 8 e2659 10.1038/cddis.2017.53 28277541 PMC5386553 || [16]; PMID 26975227; doi:10.1038/tpj.2016.17; 16. Lal S Pharmacogenetics of ABCB5, ABCC5 and RLIP76 and doxorubicin pharmacokinetics in Asian breast cancer patients Pharmacogenomics J. 2017 17 337 343 10.1038/tpj.2016.17 26975227 || [17]; PMID 15897250; doi:10.1158/1535-7163.MCT-04-0291; 17. Pratt S The multidrug resistance protein 5 (ABCC5) confers resistance to 5-fluorouracil and transports its monophosphorylated metabolites Mol. Cancer Ther. 2005 4 855 863 10.1158/1535-7163.MCT-04- || [18]; PMID 10840050; doi:10.1073/pnas.120159197; 18. Wijnholds J Multidrug-resistance protein 5 is a multispecific organic anion transporter able to transport nucleotide analogs Proc. Nat. Acad. Sci. USA 2000 97 7476 7481 10.1073/pnas.120159197 1084 ||| ref [18] = [18]; PMID 10840050; doi:10.1073/pnas.120159197; 18. Wijnholds J Multidrug-resistance protein 5 is a multispecific organic anion transporter able to transport nucleotide analogs Proc. Nat. Acad. Sci. USA 2000 97 7476 7481 10.1073/pnas.120159197 1084; conditions: cited from earlier work; for efflux by hMRP5 / contribution to drug resistance, in words: anticancer drugs, ref [15]–[18]
# hMRP5-Δ1-94 = target: T1, hMRP5-Δ1-94 (Homo sapiens, UniProt O15440); test: MST binding assay, hMRP5-Δ1-94; conditions: for binding affinity to hMRP5, in words: MST, digitonin-purified hMRP5-Δ1-94, 15 min at room temperature
# T1 construct: The codon-optimized full-length human ABCC5 gene encoding the MRP5 protein (UniProt ID: O15440); 8xHis (C); 2xstrep (C); made in house; host or cells: HEK293F
# Method: We monitored the binding of different peptides to digitonin-purified hMRP5-Δ1-94-8xHis by MST assay (Monolith NT). HEPES buffer was used to replace Tris buffer during protein purification in the MST assay. The purified protein was mixed with RED-tris-NTA 2nd Generation dye (NanoTemper, MO-L018). Next, serially diluted peptides were mixed with the labeled protein. The mixtures were incubated for 15 min at room temperature, then the capillaries were loaded and the samples were assessed at 3% LED/excitation power and medium MST power. All peptides used in this study were synthesized in GL Biochem (Shanghai). The peptide sequence is provided as Source Data 5. The MST data were analyzed with MO.Affinity Analysis software.
# GFP-hMRP5 = test: Doxorubicin transport assay in Xenopus laevis oocytes; assay type: cell-based, human; conditions: no peptide, 200 μM doxorubicin, 180 min, Kulori buffer pH 7.4, final 50 μl extract, LC-MS, *P = 0.0190 blank vs GFP-hMRP5
# Method: The transport assay was essentially done and modified as described. In brief, the cRNAs of C-terminal GFP-tagged hMRP5 and C-terminal mcherry-tagged M5PI were prepared from the linearized pcs2CAG vector DNA templates using the mMESSAGE mMACHINE T7 transcription system (Thermo Scientific, AM1344). Xenopus oocytes were injected with approximately 30 nl of cRNA (GFP-tagged hMRP5 and mcherry-tagged M5PI have the equal quantity 30 ng) or water after maintained in ND96 solution (96 mM NaCl, 2 mM KCl, 1 mM MgCl2, 1.8 mM CaCl2, 5 mM HEPES, pH 7.4) overnight. After 3 days of culture, the GFP and mcherry fluorescence of oocytes was detected using Nikon Confocal A1R, and oocytes showing similar fluorescence intensity were selected for assay. Then, oocytes were pre-incubated in Kulori buffer (90 mM NaCl, 1 mM KCl, 1 mM MgCl2, 5 mM HEPES, pH 7.4) for 5 min before being transferred to 1 ml Kulori buffer containing 200 μM doxorubicin for 180 min. The assay was stopped by removing the buffer and then washed with Kulori buffer at least 3 times and transferred into 1.5 ml tubes (3 oocytes per tube). Excess washing buffer was removed from the tube, and then 50 μl 50% methanol was added to the tube for oocyte homogenization by pipetting. The homogenized samples were centrifuged at 10,000 × g for 10 min at 4 °C, and the supernatants were transferred into new tubes and incubated at −20 °C until further analysis. The samples were acquired with a Q Exactive mass spectrometer coupled with UltiMate 3000 liquid chromatography system (Thermo scientific, CA, USA) after centrifugation at 20,000 × g for 15 min at 4 °C. A Hypersil GOLDTM C18 column (2.1 ×100 mm, 1.9 μm, Thermo Scientific) was used at a flow rate of 0.3 ml min^−1 for separation. Mobile phase A was 0.1% formic acid, while mobile phase B was acetonitrile modified with 0.1% formic acid. The mass spectrometer was operated in positive mode with a spray voltage of 3.5 kV. Full scan mass spectrometry data were recorded from the m/z range of 80–800. A standard dilution curve for quantification of doxorubicin was done. Statistical analysis of the transport assay results was performed using GraphPad Prism. Source data is provided as Source Data 6. The mass spectrometry data is provided as Supplementary Data 3.
# MRP5 [2] = tested on: MRP5; design: method as in PMID 16337112, PMID 15006554, PMID 10893247; conditions: ref [25],[29],[30]; cited from earlier work
# hMRP4 = target: T2, hMRP4 (Homo sapiens, UniProt O15439); test: MST binding assay, hMRP4
# T2 sequence (O15439 1-1325): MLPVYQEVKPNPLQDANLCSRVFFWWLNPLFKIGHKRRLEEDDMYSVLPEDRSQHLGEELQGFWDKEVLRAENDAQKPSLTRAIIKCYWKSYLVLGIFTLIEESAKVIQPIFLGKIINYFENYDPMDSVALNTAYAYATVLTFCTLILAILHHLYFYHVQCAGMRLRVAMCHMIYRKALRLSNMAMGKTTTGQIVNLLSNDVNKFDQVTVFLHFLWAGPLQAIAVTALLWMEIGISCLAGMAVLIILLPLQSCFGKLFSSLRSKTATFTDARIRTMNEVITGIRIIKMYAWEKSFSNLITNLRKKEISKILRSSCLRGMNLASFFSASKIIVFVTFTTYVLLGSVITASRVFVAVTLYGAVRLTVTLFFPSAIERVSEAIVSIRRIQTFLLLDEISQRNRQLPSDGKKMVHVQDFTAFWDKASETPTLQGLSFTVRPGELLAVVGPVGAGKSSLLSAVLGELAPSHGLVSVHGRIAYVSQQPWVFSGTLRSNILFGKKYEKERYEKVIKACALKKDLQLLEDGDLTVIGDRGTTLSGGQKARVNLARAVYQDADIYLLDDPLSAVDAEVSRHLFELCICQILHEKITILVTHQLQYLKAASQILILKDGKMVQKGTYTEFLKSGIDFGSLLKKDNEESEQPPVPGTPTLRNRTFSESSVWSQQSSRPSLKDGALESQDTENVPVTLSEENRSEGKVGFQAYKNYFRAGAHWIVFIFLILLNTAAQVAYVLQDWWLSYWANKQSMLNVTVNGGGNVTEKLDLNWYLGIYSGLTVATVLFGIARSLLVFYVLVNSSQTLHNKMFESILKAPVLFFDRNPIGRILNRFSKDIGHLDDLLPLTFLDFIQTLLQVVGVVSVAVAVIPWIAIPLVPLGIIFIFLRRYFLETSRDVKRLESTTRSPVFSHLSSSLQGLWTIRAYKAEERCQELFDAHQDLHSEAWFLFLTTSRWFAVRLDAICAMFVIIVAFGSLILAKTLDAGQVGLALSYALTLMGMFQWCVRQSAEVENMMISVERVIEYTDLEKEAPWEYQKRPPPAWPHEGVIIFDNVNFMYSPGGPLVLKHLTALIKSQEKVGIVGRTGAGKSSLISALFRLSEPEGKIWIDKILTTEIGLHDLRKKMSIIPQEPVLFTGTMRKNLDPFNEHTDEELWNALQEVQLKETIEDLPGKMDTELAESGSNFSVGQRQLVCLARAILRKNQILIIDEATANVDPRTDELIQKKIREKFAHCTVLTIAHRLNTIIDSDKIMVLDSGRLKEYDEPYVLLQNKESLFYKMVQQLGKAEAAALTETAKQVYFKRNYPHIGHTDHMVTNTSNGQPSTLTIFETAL
# T1 sequence (O15440 95-1437 limits assumed, stated change not applied): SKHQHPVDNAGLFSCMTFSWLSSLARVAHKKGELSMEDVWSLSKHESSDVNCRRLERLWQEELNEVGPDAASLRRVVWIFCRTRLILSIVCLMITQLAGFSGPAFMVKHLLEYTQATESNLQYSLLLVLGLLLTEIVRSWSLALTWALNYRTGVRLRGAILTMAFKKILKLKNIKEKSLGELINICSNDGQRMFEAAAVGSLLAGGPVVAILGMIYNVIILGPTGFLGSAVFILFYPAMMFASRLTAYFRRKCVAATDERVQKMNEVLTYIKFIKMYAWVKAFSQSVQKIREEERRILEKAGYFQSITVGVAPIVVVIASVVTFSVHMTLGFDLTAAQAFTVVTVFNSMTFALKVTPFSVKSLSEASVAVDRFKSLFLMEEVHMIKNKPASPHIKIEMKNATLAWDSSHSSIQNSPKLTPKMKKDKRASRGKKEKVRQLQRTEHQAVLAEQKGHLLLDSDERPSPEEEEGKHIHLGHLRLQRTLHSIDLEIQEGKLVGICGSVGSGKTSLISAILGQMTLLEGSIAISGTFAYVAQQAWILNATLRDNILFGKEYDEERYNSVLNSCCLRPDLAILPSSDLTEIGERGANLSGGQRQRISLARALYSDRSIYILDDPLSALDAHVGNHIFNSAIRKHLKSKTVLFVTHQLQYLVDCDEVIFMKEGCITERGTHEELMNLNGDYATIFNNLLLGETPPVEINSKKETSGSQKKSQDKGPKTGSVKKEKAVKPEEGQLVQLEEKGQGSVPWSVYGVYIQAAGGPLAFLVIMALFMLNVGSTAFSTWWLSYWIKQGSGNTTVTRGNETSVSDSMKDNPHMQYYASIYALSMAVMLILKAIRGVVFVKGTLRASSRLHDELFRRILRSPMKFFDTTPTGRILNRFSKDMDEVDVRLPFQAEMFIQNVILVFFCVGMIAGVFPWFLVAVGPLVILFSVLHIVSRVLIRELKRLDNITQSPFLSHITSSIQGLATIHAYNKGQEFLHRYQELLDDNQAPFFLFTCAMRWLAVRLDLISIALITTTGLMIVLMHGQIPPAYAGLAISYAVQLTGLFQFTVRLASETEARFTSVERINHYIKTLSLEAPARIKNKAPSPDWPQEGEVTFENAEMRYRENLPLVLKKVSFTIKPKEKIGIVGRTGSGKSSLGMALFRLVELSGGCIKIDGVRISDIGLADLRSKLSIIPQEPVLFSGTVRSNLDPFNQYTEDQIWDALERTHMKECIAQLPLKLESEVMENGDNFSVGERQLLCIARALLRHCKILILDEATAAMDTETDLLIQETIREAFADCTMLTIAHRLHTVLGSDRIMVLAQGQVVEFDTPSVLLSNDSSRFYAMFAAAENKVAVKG
smiles,measurement,setting,value
O=c1[nH]cc(F)c(=O)[nH]1 [5-fluorouracil],"intracellular drug concentration on reducing endogenous MRP5, in words",MRP5 [1],notably increase the intracellular concentrations
Nc1ncnc2c1ncn2CCOCP(=O)(O)O [9-(2-phosphonomethoxyethyl) adenine],"transport by hMRP5, in words","hMRP5; antiviral monophosphate nucleotide analog, ref [18]",leading to antiviral multidrug resistance
"COc1cccc2c1C(=O)c1c(O)c3c(c(O)c1C2=O)C[C@@](O)(C(=O)CO)C[C@@H]3O[C@H]1C[C@H](N)[C@H](O)[C@H](C)O1 [Doxorubicin, doxorubicin]",Kd,hMRP5-Δ1-94,53.5 ± 22.9 µM
same,"Doxorubicin concentration in oocyte extract, GFP-hMRP5",GFP-hMRP5; replicate 1,323.646 nM
same,"Doxorubicin concentration in oocyte extract, GFP-hMRP5",GFP-hMRP5; replicate 2,292.08 nM
same,"Doxorubicin concentration in oocyte extract, GFP-hMRP5",GFP-hMRP5; replicate 3,493.92 nM
same,"Doxorubicin concentration in oocyte extract, GFP-hMRP5",GFP-hMRP5; replicate 4,266.323 nM
same,"efflux by hMRP5 / contribution to drug resistance, in words",hMRP5,directly contribute to cancer drug resistance through the efflux
CN(C)C(=O)CCSC(SCCC(=O)O)c1cccc(/C=C/c2ccc3ccc(Cl)cc3n2)c1 (stereo not shown) [MK-571],"inhibition of MRP5 transport activity, in words",MRP5 [2],reported to inhibit the transport activity of MRP5
"CCCCC[C@H](O)/C=C/[C@H]1[C@H](O)CC(=O)[C@@H]1CCCCCCC(=O)O [PGE1, prostaglandin E1]",Kd,hMRP4,3.73 ± 0.66 µM
same,"binding affinity to hMRP4, in words","hMRP4; MST, three independent measurements",hMRP4 could capture prostaglandin E1 (PGE1)
"COc1cc2c(cc1OC)-c1c/c(=N\c3c(C)cc(C)cc3C)n(C)c(=O)n1CC2 [Trequinsin, trequinsin]",Kd,"hMRP5-Δ1-94; digitonin-purified hMRP5-Δ1-94-8xHis, HEPES buffer, RED-tris-NTA 2nd Generation dye, 15 min at room temperature, 3% LED/excitation power, medium MST power, mean ± SEM of three independent measurements, read-out: binding affinity (MST), KD value",42.4 ± 17.5 µM
same,"inhibition of MRP5 transport activity, in words",MRP5 [2],reported to inhibit the transport activity of MRP5
"Nc1nc2c(ncn2[C@@H]2O[C@@H]3COP(=O)(O)O[C@H]3[C@H]2O)c(=O)[nH]1 [cGMP, cyclic GMP]","binding affinity to hMRP5, in words",hMRP5-Δ1-94,relatively low binding affinity
N.N.[Cl][Pt][Cl] [cisplatin],"efflux by hMRP5 / contribution to drug resistance, in words",hMRP5,directly contribute to cancer drug resistance through the efflux
CN(Cc1cnc2nc(N)nc(N)c2n1)c1ccc(C(=O)N[C@@H](CCC(=O)O)C(=O)O)cc1 [methotrexate],"efflux by hMRP5 / contribution to drug resistance, in words",hMRP5,directly contribute to cancer drug resistance through the efflux
Nc1nc2[nH]cc(CCc3ccc(C(=O)N[C@@H](CCC(=O)O)C(=O)O)cc3)c2c(=O)[nH]1 [pemetrexed],"intracellular drug concentration on reducing endogenous MRP5, in words",MRP5 [1],notably increase the intracellular concentrations
CCCN(CCC)S(=O)(=O)c1ccc(C(=O)O)cc1 [probenecid],"inhibition of MRP5 transport activity, in words",MRP5 [2],reported to inhibit the transport activity of MRP5
CC(=O)[C@H]1CC[C@H]2[C@@H]3CCC4=CC(=O)CC[C@]4(C)[C@H]3CC[C@]12C [progesterone],"binding affinity to hMRP5, in words",hMRP5-Δ1-94,relatively low binding affinity
CCCc1nn(C)c2c(=O)[nH]c(-c3cc(S(=O)(=O)N4CCN(C)CC4)ccc3OCC)nc12 [sildenafil],"inhibition of MRP5 transport activity, in words",MRP5 [2],reported to inhibit the transport activity of MRP5
C[C@]12CC[C@H]3[C@@H](CCC4=CC(=O)CC[C@@]43C)[C@@H]1CC[C@@H]2O [testosterone],"binding affinity to hMRP5, in words",hMRP5-Δ1-94,relatively low binding affinity
CCCOc1ccccc1-c1nc2nn[nH]c2c(=O)[nH]1 [zaprinast],"inhibition of MRP5 transport activity, in words",MRP5 [2],reported to inhibit the transport activity of MRP5
